Results on four molecules are retold here after patent US20240180883A1, “TREATMENT OF MIGRAINE” (Allergan Pharmaceuticals International Limited, priority 2020, published 2024).

For series [1] the following is noted: cited from earlier work; for liver enzyme levels: clinical trials.
Another series in a line: Study B: adverse events. The settings on record: Treatment B: rifampin 600 mg once daily for 5 days, fasted.

SMILES strings stand for the structures.

For the molecule `O=C(N[C@@H]1CC[C@@H](c2cccc(F)c2F)CN(CC(F)(F)F)C1=O)N1CCC(n2c(=O)[nH]c3ncccc32)CC1` [telcagepant], the liver enzyme levels entry in series [1] is recorded as “elevated liver enzyme levels were observed”.
Take `O=C(CN1C(=O)C2(CCCC2)NC[C@H]1c1cc(F)cc(F)c1)Nc1ccc2c(c1)C[C@@]1(C2)C(=O)Nc2ncccc21` [MK-3207]: the liver enzyme levels result in series [1] is “elevated liver enzyme levels were observed”.
With `NCCCC[C@H](NC(=O)[C@@H](Cc1cc(Br)c(O)c(Br)c1)NC(=O)N1CCC(N2Cc3ccccc3NC2=O)CC1)C(=O)N1CCN(c2ccncc2)CC1` [olcegepant], the “efficacy in the acute treatment of migraine” value in series [1] (IV formulation) was “efficacious in the acute treatment of migraine”. In series [1] (human, in vivo, po), the oral bioavailability result was “not orally bioavailable”.
For the molecule `CO[C@H]1/C=C/O[C@@]2(C)Oc3c(C)c(O)c4c(O)c(c(/C=N/N5CCN(C)CC5)c(O)c4c3C2=O)NC(=O)/C(C)=C\C=C\[C@H](C)[C@H](O)[C@@H](C)[C@@H](O)[C@@H](C)[C@H](OC(C)=O)[C@@H]1C` [rifampin, reference compound], in the series “Study B: adverse events”, the “AEs leading to discontinuation” value is listed as 0 n (%), the “Any AE” value is 1 (3.3) n (%), the Deaths is given as 0 n (%) and the “Dry Mouth” value is 0 n (%). Moreover, in “Study B: adverse events”, the Flatulence is on record as 0 n (%), the “Gastrointestinal Disorders” value was 0 n (%), the Headache was 1 (3.3) n (%) and the Nausea was 0 n (%). Moreover, in the series “Study B: adverse events”, the “Nervous System Disorders” value is recorded as 1 (3.3) n (%), the SAEs is given as 0 n (%), the TEAEs is listed as 1 (3.3) n (%) and the “Treatment related TEAEs” value is listed as 1 (3.3) n (%).
